The values below come from ChEMBL document CHEMBL4346749, “Design, synthesis and evaluation of novel, potent DNA alkylating agents and their antibody-drug conjugates (ADCs)” (Bioorg Med Chem Lett, 2019).

What all share (format): functional, cell-based
Experiment [1] concerns NAMALVA. The experiment is described as follows: Cytotoxicity against human NAMALWA cells assessed as reduction in cell viability after 5 days by WST-8 assay. As to conditions: 120 h. For orientation: Tetrazolium dyes change colour on reduction, which living cells bring about.
Experiment [2] in a line: Cytotoxicity against human NCI-H2110 cells assessed as reduction in cell viability after 5 days by WST-8 assay. The conditions noted are these: NCI-H2110, 120 h.
For experiment [3], the system named is KB. Kind of experiment: Cytotoxicity against human KB cells assessed as reduction in cell viability after 5 days by WST-8 assay. The conditions noted are these: 120 h.

The IC50 is the concentration at which inhibition is half-maximal. In the case of `COc1cc2c(cc1OCCCC(=O)Nc1cn(C)c(C(=O)Nc3ccc4sc(C(=O)NCC(C)(C)SSC)cc4c3)n1)N=C[C@@H]1Cc3ccccc3N1C2=O`, the half-maximal inhibitory concentration (IC50) in experiment [1] amounted to 0.03 nM.
Take `COc1cc2c(cc1OCCCC(=O)Nc1cc(C(=O)Nc3ccc(-c4cc(C(=O)NCC(C)(C)SSC)n(C)c4)cc3)n(C)c1)N=C[C@@H]1Cc3ccccc3N1C2=O`: the IC50 came out at 0.1 nM in experiment [2], 0.03 nM in experiment [1] and 0.01 nM in experiment [3].
For `COc1cc2c(cc1OCCCC(=O)Nc1cc(C(=O)Nc3ccc4sc(C(=O)NCC(C)(C)SSC)cc4c3)n(C)c1)N=C[C@@H]1Cc3ccccc3CN1C2=O`, in that order: 0.03 nM, 0.002 nM and 0.005 nM.
As to `COc1cc2c(cc1OCCCC(=O)Nc1cn(C)c(C(=O)Nc3ccc(N)cc3)n1)N=C[C@@H]1Cc3ccccc3N1C2=O`, the IC50 was determined as 0.4 nM in experiment [2], 0.06 nM in experiment [1] and 0.2 nM in experiment [3].
Turning to `COC(=O)CCNC(=O)c1cc2cc(NC(=O)c3nc(NC(=O)CCCOc4cc5c(cc4OC)C(=O)N4c6ccccc6C[C@H]4C=N5)cn3C)ccc2o1`, the half-inhibitory concentration (IC50) stood at 0.5 nM in experiment [2], 0.06 nM in experiment [1] and 0.08 nM in experiment [3].
For `COc1cc2c(cc1OCCCC(=O)Nc1cn(C)c(C(=O)Nc3ccc(NC(=O)CCC(C)(C)SSC)cc3)n1)N=C[C@@H]1Cc3ccccc3N1C2=O` the same measures were 0.4 nM, 0.03 nM and 0.03 nM.
For `COC(=O)CCNC(=O)c1cc2cc(NC(=O)c3cc(NC(=O)CCCOc4cc5c(cc4OC)C(=O)N4c6ccccc6C[C@H]4C=N5)cn3C)ccc2s1`, in that order: 0.2 nM, 0.03 nM and 0.04 nM.
For `COC(=O)c1cc2cc(NC(=O)c3cc(NC(=O)CCCOc4cc5c(cc4OC)C(=O)N4c6ccccc6C[C@H]4C=N5)cn3C)ccc2s1`, the values for the half-inhibitory concentration (IC50) in experiment [2], in experiment [1] and in experiment [3] were 0.05 nM, 0.02 nM and 0.01 nM, respectively.
For `COc1cc2c(cc1OCCCC(=O)Nc1cn(C)c(C(=O)Nc3ccc4sccc4c3)n1)N=C[C@@H]1Cc3ccccc3N1C2=O` the same measures were 0.08 nM, 0.02 nM and 0.04 nM.
For the compound `COC(=O)CCNC(=O)c1cc2cc(NC(=O)c3cc(NC(=O)CCCOc4cc5c(cc4OC)C(=O)N4c6ccccc6C[C@H]4C=N5)cn3C)ccc2o1`, the results for the IC50 in experiment [2], in experiment [1] and in experiment [3] were 0.5 nM, 0.06 nM and 0.2 nM, respectively.
Regarding `COC(=O)CCNC(=O)c1cc2cc(NC(=O)c3nc(NC(=O)CCCOc4cc5c(cc4OC)C(=O)N4c6ccccc6C[C@H]4C=N5)cn3C)ccc2s1`, the half-inhibitory concentration (IC50) in experiment [1] is 0.01 nM.
On to `COc1cc2c(cc1OCCCC(=O)Nc1cn(C)c(C(=O)Nc3ccc(-c4cc(C(=O)NCC(C)(C)SSC)n(C)c4)cc3)n1)N=C[C@@H]1Cc3ccccc3CN1C2=O`, for which the IC50 in experiment [2] came out at 0.01 nM; in experiment [1], 0.001 nM; in experiment [3], 0.006 nM.
As to `COc1cc2c(cc1OCCCC(=O)Nc1cn(C)c(C(=O)Nc3ccc(-c4cc(C(=O)NCC(C)(C)SSC)n(C)c4)cc3)n1)N=C[C@@H]1Cc3ccccc3N1C2=O`, the half-inhibitory concentration (IC50) in experiment [2] was found to be 0.06 nM; in experiment [1], 0.01 nM; in experiment [3], 0.04 nM.
For `COc1cc2c(cc1OCCCC(=O)Nc1cc(C(=O)Nc3ccc4sc(C(=O)NCC(C)(C)SSC)cc4c3)n(C)c1)N=C[C@@H]1Cc3ccccc3N1C2=O` the same measures were 0.3 nM, 0.01 nM and 0.08 nM.
For `COc1cc2c(cc1OCCCC(=O)Nc1nc(C(=O)Nc3ccc(NC(=O)CCC(C)(C)SSC)cc3)cs1)N=C[C@@H]1Cc3ccccc3N1C2=O`, in that order: 0.6 nM, 0.03 nM and 0.1 nM.
